Results as given in ChEMBL document CHEMBL3616380, “Photocytotoxicity, cellular uptake and subcellular localization of amidinophenylporphyrins as potential photodynamic therapeutic agents: An in vitro cell study” (Bioorg Med Chem Lett, 2015).

Experiments:
[1] = Dark cytotoxicity against human HK1 cells assessed as cell viability at 1 to 8 uM after 24 hrs by MTT reduction assay; format: cell-based; conditions: hk1, 24 h
[2] = Cellular uptake in human HK1 cells assessed per 10^6 cells at 8 uM after 1 to 24 hrs by flow cytometry; format: ADME, cell-based; conditions: hk1, 8 µM
[3] = Photocytotoxicity against human HK1 cells assessed as cell viability at 8 uM measured 24 hrs post 4 J/cm'2 irradiation by MTT reduction assay; format: functional; conditions: HK-1, light or radiation study, read-out: Activity
[4] = Drug uptake in lysosomes of human HK1 cells at 8 uM after 24 hrs by confocal microscopy analysis; format: ADME, cell-based, Lysosome; conditions: hk1, 24 h
[5] = Photocytotoxicity against human HK1 cells assessed as cell viability at 4 uM measured 24 hrs post 12 J/cm'2 irradiation by MTT reduction assay; format: functional; conditions: HK-1, light or radiation study, read-out: Activity
[6] = Drug uptake in mitochondria of human HK1 cells at 8 uM after 24 hrs by confocal microscopy analysis; format: ADME; conditions: hk1, 24 h

| Drug uptake [2] | Drug uptake [4] | SMILES | Activity [1] | viability at 8 µM [3] [%] | viability at 4 µM [5] [%] | Drug uptake [6] |
| --- | --- | --- | --- | --- | --- | --- |
| Active | Active | N=C(N)c1ccc(-c2c3nc(c(-c4ccc(C(=N)N)cc4)c4ccc([nH]4)c(-c4ccc(C(=N)N)cc4)c4nc(c(-c5ccc(C(=N)N)cc5)c5ccc2[nH]5)C=C4)C=C3)cc1 | Non-toxic | 50 | 90 | – |
| Active | Active | N=C(N)c1ccc(-c2c3nc(c(-c4ccc(C(=N)N)cc4)c4ccc([nH]4)c(-c4ccc(C(=N)N)cc4)c4nc(c(-c5ccc(OCCCOc6ccc(-c7c8nc(c(-c9ccccc9)c9ccc([nH]9)c(-c9ccccc9)c9nc(c(-c%10ccccc%10)c%10ccc7[nH]%10)C=C9)C=C8)cc6)cc5)c5ccc2[nH]5)C=C4)C=C3)cc1 | Non-toxic | – | 20 | – |

| SMILES | Drug uptake [2] | Drug uptake [4] | Activity [1] | viability at 8 µM [3] [%] | viability at 4 µM [5] [%] | Drug uptake [6] |
| --- | --- | --- | --- | --- | --- | --- |
| C[n+]1ccc(-c2c3nc(c(-c4cc[n+](C)cc4)c4ccc([nH]4)c(-c4cc[n+](C)cc4)c4ccc([nH]4)c(-c4cc[n+](C)cc4)c4nc2C=C4)C=C3)cc1 [TMPYP4] | Active | – | Non-toxic | – | 58 | Active |
